{"source": "patent US10568819B2", "about": "“Skin enhancing compositions and methods” (Sytheon Limited, priority 2016, dated 2020)", "key": {"Keratinocytes": {"tested_on": "Keratinocytes", "experiment": "UVA- and UVB-induced formation of immediate CPDs (iCPDs) in keratinocytes", "assay_type": "cell-based", "protocol": "(§1) Given the significance of CPDs in skin aging and damage, a study was undertaken to determine whether compounds of the present invention have the ability to directly protect the genome of skin cells from the mutagenic effect of UV light as evidenced by CPDs inhibition. The study was conducted in accordance with the method described by Mitchell et. al. [Mitchell, D L, The relative cytotoxicity of (6-4) photoproducts and cyclobutane dimers in mammalian cells. Photochem Photobiol, 48(1):51-57, 1988)] pursuant to which UVA- and UVB-induced formation of immediate CPDs (iCPDs) were determined."}, "Fibroblasts [1]": {"tested_on": "Fibroblasts", "experiment": "UVA- and UVB-induced formation of immediate CPDs (iCPDs) in fibroblasts", "assay_type": "cell-based", "settings": "25 μg/ml", "protocol": "as §1"}, "Keratinocyte": {"tested_on": "Keratinocyte", "experiment": "UVA-induced delayed formation of CPDs (dCPDs) in keratinocytes", "assay_type": "cell-based", "settings": "25 μg/ml", "protocol": "(§2) A second study was carried out, similar to the first, except that this time the analysis was in assessing the efficacy, if any, of the presently taught aryl alkanones in reducing UVA-induced delayed formation of CPDs (dCPDs)."}, "[2]": {"tested_on": "ϕX-174 RF bacteriophage supercoiled DNA", "experiment": "UVA/AGE-albumin-induced DNA strand breaks (QPES)", "assay_type": "biochemical", "protocol": "A study was undertaken to determine whether the aryl alkanones of the present invention have the ability to reduce photooxidative stress by physical Quencher of Photo-excited States (QPES) mechanism under UV light employing the method of Wondarak et al, (J Invest Dermatol, 119:489, 2002). Briefly, 100 ng (experiment 1) or 200 ng (experiment 2) of ϕX-174 RF bacteriophage supercoiled DNA was irradiated in the presence of […] of filtered glycated bovine serum albumin (20 mg/ml BSA reacted for 3 weeks with 180 mg/ml glucose at 37° C.) in a final volume of 100 μl. The irradiation was performed in a 96 well plate without lid, with UVA lamp (Ultra-lum UVA-28T at 6.4 mW/cm^2) for 2 h, delivering a total energy of […]. Following irradiation 10 μl of the reaction mixture was mixed with 2 μl of loading buffer, resolved in 1% agarose gel (at 90V for 20 min) and stained with ethidium bromide ([…]). The intact (supercoiled) lower (faster-migrating) band and the UVA-damaged (uncoiled) higher (slower-migrating) band were visualized using Hoefer transilluminator. Photographs of the gels were then processed using NIH ImageJ and ratio of unwound (damaged) to supercoiled (intact) bands was calculated and used to assess the protective activity of test materials."}, "[3]": {"experiment": "Antioxidant power / quenching: singlet oxygen"}, "NOX [4]": {"tested_on": "NOX", "settings": "UVA; Keratinocytes; 50 μg/ml"}, "NOX [5]": {"tested_on": "NOX", "settings": "UVA; Fibroblasts; 50 μg/ml"}, "Fibroblasts [6]": {"tested_on": "Fibroblasts", "experiment": "UVA-induced delayed formation of CPDs (dCPDs) in fibroblasts", "assay_type": "cell-based", "settings": "25 μg/ml", "protocol": "as §2"}, "iNOS": {"molecular_target": "iNOS (Homo sapiens, UniProt P35228)", "sequence (P35228 whole entry, species assumed)": "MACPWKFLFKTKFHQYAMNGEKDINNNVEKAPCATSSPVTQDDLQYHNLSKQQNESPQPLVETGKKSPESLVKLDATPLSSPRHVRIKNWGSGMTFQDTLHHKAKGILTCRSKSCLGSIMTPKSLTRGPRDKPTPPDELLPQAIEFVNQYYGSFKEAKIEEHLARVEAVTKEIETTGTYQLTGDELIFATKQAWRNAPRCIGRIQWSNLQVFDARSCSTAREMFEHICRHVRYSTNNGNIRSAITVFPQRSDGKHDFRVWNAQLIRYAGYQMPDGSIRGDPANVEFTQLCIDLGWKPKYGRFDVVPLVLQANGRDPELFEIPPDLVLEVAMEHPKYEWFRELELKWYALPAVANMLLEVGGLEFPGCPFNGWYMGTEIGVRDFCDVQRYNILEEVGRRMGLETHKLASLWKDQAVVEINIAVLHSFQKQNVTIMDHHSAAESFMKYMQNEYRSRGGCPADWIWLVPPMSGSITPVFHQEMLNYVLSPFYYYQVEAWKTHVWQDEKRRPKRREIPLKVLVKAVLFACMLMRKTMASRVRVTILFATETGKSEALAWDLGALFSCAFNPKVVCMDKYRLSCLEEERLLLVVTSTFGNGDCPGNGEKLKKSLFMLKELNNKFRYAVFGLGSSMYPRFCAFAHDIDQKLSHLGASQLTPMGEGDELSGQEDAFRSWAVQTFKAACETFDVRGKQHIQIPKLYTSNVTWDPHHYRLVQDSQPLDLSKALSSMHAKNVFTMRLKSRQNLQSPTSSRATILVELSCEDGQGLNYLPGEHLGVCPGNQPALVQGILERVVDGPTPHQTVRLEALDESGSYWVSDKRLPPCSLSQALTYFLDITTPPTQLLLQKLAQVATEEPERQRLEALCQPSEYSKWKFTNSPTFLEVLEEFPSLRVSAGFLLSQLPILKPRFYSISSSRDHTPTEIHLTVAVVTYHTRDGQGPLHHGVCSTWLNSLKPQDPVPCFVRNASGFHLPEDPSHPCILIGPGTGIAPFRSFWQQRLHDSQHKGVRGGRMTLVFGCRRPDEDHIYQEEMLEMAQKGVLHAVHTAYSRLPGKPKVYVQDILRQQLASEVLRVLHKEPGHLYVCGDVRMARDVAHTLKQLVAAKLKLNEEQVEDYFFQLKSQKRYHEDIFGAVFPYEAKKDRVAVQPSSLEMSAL", "experiment": "Reduction of iNOS activity", "assay_type": "biochemical", "settings": "read-out: Reduction of iNOS activity, Amount used in μM (IC50) values)", "text": "Accordingly, an investigation was undertaken to assess the efficacy of compounds according to the present teaching as compared to compounds that are closely structurally related thereto in inhibiting NO product."}, "[7]": {"experiment": "Lipid peroxidation, squalene substrate", "assay_type": "biochemical", "settings": "Squalene used as a substrate"}, "[8]": {"experiment": "Antioxidant power: hydroxyl radicals"}, "[9]": {"experiment": "Antioxidant power: peroxynitrite"}, "[10]": {"experiment": "Antioxidant power: peroxyl radicals"}, "[11]": {"experiment": "Antioxidant power: super oxide anion"}}, "note": "Like-named read-outs stand apart in the source and are kept apart here."}
{"molecule": "CCOC(=O)C(Cc1ccc(O)c(OC)c1)C(C)=O", "note": "(centres unmarked) [Compound 2]", "values": [{"measurement": "UVA/% Reduction in iCPDs vs. Control", "setting": "Keratinocytes; 25 μg/ml", "result": 26, "unit": "%"}, {"measurement": "UVB/% Reduction iCPDs vs. Control", "setting": "Keratinocytes; 25 μg/ml", "result": 25, "unit": "%"}, {"measurement": "UVB/% Reduction iCPDs vs. Control", "setting": "Fibroblasts [1]", "result": 44, "unit": "%"}, {"measurement": "UVA/% Reduction in dCPDs vs. control, 0 hr. (Reduction in iCPDs)", "setting": "Keratinocyte; 0 hr.", "result": "^+0 hr.: ↓26%"}, {"measurement": "UVA/% Reduction in dCPDs vs. control, 1 hr.", "setting": "Keratinocyte; 1 hr.", "result": "1 hr.: ↓13%"}, {"measurement": "UVA/% Reduction in dCPDs vs. control, 2 hr.", "setting": "Keratinocyte; 2 hr.", "result": "2 hr.: ~0%"}]}
{"molecule": "COc1cc(CC(C(C)=O)C(C)=O)cc(OC)c1OC", "note": "[Compound 7]", "values": [{"measurement": "% DNA strand breaks", "setting": "[2]; 0.03 μg/ml", "result": 33, "unit": "%"}, {"measurement": "% DNA strand protection", "setting": "[2]; 0.03 μg/ml", "result": 67, "unit": "%"}, {"measurement": "% DNA strand breaks", "setting": "[2]; 0.1 μg/ml", "result": 15, "unit": "%"}, {"measurement": "% DNA strand protection", "setting": "[2]; 0.1 μg/ml", "result": 85, "unit": "%"}, {"measurement": "Antioxidant Power, Singlet oxygen", "setting": "[3]", "result": "6,359+ μmole Trolox Equivalent/gram"}, {"measurement": "Singlet oxygen quenching", "setting": "[3]; ±10% error", "result": "6,359 μMole Trolox Equivalent/g"}]}
{"molecule": "CCOC(=O)C(Cc1cc(OC)c(OC)c(OC)c1)C(C)=O", "note": "(centres unmarked) [Compound 8]", "values": [{"measurement": "reduction of NOX activity", "setting": "NOX [4]", "result": "−17", "unit": "%"}, {"measurement": "reduction of NOX activity", "setting": "NOX [5]", "result": "−14", "unit": "%"}, {"measurement": "UVA/% Reduction in dCPDs vs. control, 0 hr. (Reduction in iCPDs)", "setting": "Fibroblasts [6]; 0 hr., product incubated for 24 hrs. plus UVA irradiation", "result": "^+0 hr.: No effect"}, {"measurement": "UVA/% Reduction in dCPDs vs. control, 1 hr.", "setting": "Fibroblasts [6]; 1 hr., product incubated for 24 hrs. plus UVA irradiation", "result": "1 hr.: ↓35%"}, {"measurement": "UVA/% Reduction in dCPDs vs. control, 2 hr.", "setting": "Fibroblasts [6]; 2 hr., product incubated for 24 hrs. plus UVA irradiation", "result": "2 hr.: ↓52%"}, {"measurement": "UVA/% Reduction in dCPDs vs. control, 4 hr.", "setting": "Fibroblasts [6]; 4 hr., product incubated for 24 hrs. plus UVA irradiation", "result": "4 hr.: ↓32%"}, {"measurement": "UVA/% Reduction in iCPDs vs. Control", "setting": "Keratinocytes; 50 μg/ml", "result": 42, "unit": "%^+"}]}
{"molecule": "COc1cc(CCC(C)=O)ccc1O", "note": "[Zingerone, reference compound]", "values": [{"measurement": "UVA/% Reduction in dCPDs vs. control", "setting": "Fibroblasts [6]; time not given", "result": "No effect"}, {"measurement": "UVA/% Reduction in iCPDs vs. Control", "setting": "Keratinocytes; 25 μg/ml", "result": "No effect"}, {"measurement": "UVB/% Reduction iCPDs vs. Control", "setting": "Keratinocytes; 25 μg/ml", "result": "No effect"}, {"measurement": "IC50", "setting": "iNOS", "result": 364, "unit": "µM"}, {"measurement": "UVA/% Reduction in iCPDs vs. Control", "setting": "Fibroblasts [1]; UVA", "result": "No effect"}, {"measurement": "UVB/% Reduction iCPDs vs. Control", "setting": "Fibroblasts [1]", "result": "No effect"}, {"measurement": "UVA/% Reduction in dCPDs vs. control", "setting": "Keratinocyte; time not given", "result": "No effect"}]}
{"molecule": "Tocopherol", "values": [{"measurement": "Lipid peroxidation IC50 value", "setting": "[7]", "result": 30, "unit": "µg/mL"}, {"measurement": "Antioxidant Power, Singlet oxygen", "setting": "[3]", "result": "1,110 μmole Trolox Equivalent/gram"}, {"measurement": "Antioxidant Power, Hydroxyl radicals", "setting": "[8]", "result": "Not detected"}, {"measurement": "Antioxidant Power, Peroxynitrite", "setting": "[9]", "result": "1 μmole Trolox Equivalent/gram"}, {"measurement": "Antioxidant Power, Peroxyl radicals", "setting": "[10]", "result": "813 μmole Trolox Equivalent/gram"}, {"measurement": "Antioxidant Power, Super oxide anion", "setting": "[11]", "result": "Not detected"}]}
